Test results as given in US12611443B2, “Methods and compositions related to therapeutic peptides for cancer therapy” (THE UNIVERSITY OF CHICAGO, priority 2018, dated 2026).

How the values were obtained:
[1] = test system: MDA-MB-231 cells; test: Resistance to ELANE, repeated exposure in vitro; assay type: cell-based, human; settings: 7 exposures, ˜90% death/exposure
Excerpt: To explore whether cancer cells could acquire resistance to ELANE, a combination of in vitro and in vivo approaches were used.

[2] = test system: tumors (MDA-MB-231, A549, MEL888, M1, 4195, E0771, LLC1, B16F10); test: Intra-tumoral treatment of tumor models (xenograft, PDX, syngeneic); assay type: in vivo, mice
Description: Tumor inoculation and treatment. MDA-MB-231 cells (2×10^6), A549 cells (2×10^6) with Matrix Type 3), or MEL888 cells (2×10^6 with Matrix Type 3) were injected into athymic nude mice (Charles River); M1 or 4195 cells (50,000) were injected into NOD.SCID mice (JAX); and E0771 cells (0.5×10^6), LLC1 cells (0.5×10^6), or B16F10 cells (1×10^6), were injected into C57BL/6 mice (JAX). For TNBC models (MDA-MB-231, E0771, M1, 4195), cells were injected into the 4th mammary fat pad of the right ventral side. For all other models (A549, LLC1, MEL888, B16F10), cells were injected into the flank. Once tumors reached ˜100 mm^3, ELANE or PMSF-ELANE (11.6 μg/100 μL), or neutrophil medias or HSA (50 μg/100 μL) were delivered IT once/day for 5 days. Tumor volume was assessed by calipers, and experiments were terminated when tumor volume in control mice reached >1000 mm^3.
Tumor immunohistochemistry. Tumors were fixed in 4% paraformaldehyde in PBS for 24 h, embedded in paraffin blocks, and sectioned (5 μm). Slides were stained with cCASP3 (9661) and cPARP (9625) antibodies from Cell Signaling Technology. Signals were developed using the VECTASTAIN ABC kit (Vector Laboratories) or fluorescently-labeled secondary antibodies (melanoma models). For the TUNEL assay, staining was performed with the DeadEnd™ colorimetric or fluorometric TUNEL systems (Promega). Cell nuclei were labeled with haematoxylin or Hoechst 33342 (ThermoFisher Scientific). Images were obtained with a Nikon Eclipse Ti2 microscope and analyzed using NIS-Elements software.

## ELANE: neutrophil elastase, a serine protease released by human PMNs
[1]
  acquired resistance after repeated exposure in vitro: did not confer resistance
[2]; E0771 TNBC model, IT, 12 μg/day
  therapeutic benefit, dose finding: good therapeutic benefit that was reproducible
[2]; ELANE 12 μg/day IT, TNBC, lung cancer, melanoma models
  tumor growth: attenuated tumor growth in all models tested
[2]; ELANE IT
  staining for TUNEL, cPARP, and cCASP3 in tumors: increase in staining for TUNEL, cPARP, and cCASP3 in all ELANE-treated tumors
[2]; all immunocompetent models tested
  tumors with a crater: ~40%
[2]; mouse, in vivo
  craters in tumor-free mice and immunocompromised cancer models: Craters were not observed
